Test systems include MDA-MB-231; HCC 2998; HCT-15; DU-145; OVCAR-3; HOP-62; UACC-257; SNB-19; SW-620; KM12; RPMI-8226; U-251; UACC-62; SK-MEL-2; MCF7; NCI/ADR-RES; LOX IMVI; SK-MEL-28; MDA-MB-435; MOLT-4.
What all share (assay): NCI-60 cell line screen, 48 h

We go through ten molecules from ChEMBL document CHEMBL1201862, “PubChem BioAssay data set” (2004).

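96-well plates; 48 h exposure; 5 concentrations. Endpoints by linear interpolation between flanking doses. Not reached: highest tested concentration assigned. Abbreviation: GI50, concentration required for 50% inhibition of growth.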 Calls of active or inactive are those of the source. Cut-off read from the data, not from the text of the source: active = GI50 up to about 1.1 µM and inactive = higher.

For the molecule `CCc1[nH]nc(C(N)=O)c1/N=N/N(C)C`, the GI50 in the assay on MDA-MB-231 is > 100 µM (inactive); in the assay on HCC 2998, > 100 µM (inactive); with HCT-15, 68.4 µM; with DU-145 it was 46.2 µM (inactive); in the assay with OVCAR-3, > 100 µM (inactive); in the assay on HOP-62 it was 82.6 µM (inactive). The GI50 in the assay with UACC-257 is > 100 µM (inactive); in the assay with SNB-19, > 100 µM (inactive); with SW-620, > 100 µM (inactive); in the assay with KM12, 56.5 µM (inactive); in the assay with RPMI-8226, 81.5 µM (inactive); in the assay on U-251, 48.3 µM (inactive). For the same molecule, the GI50 in the assay with UACC-62 is 34.4 µM (inactive); in the assay on SK-MEL-2, > 100 µM (inactive); with MCF7, 30.9 µM (inactive); with NCI/ADR-RES it was 94.8 µM (inactive); with LOX IMVI it was 43.2 µM (inactive); with SK-MEL-28 it was > 100 µM (inactive). For the same molecule, the GI50 was 64.6 µM (inactive) in the assay with MDA-MB-435 and 6.46 µM (inactive) with MOLT-4.

For `COc1nc2c(c(=O)n1C)NC(C(O)C(O)CO)C=N2` (stereo not given), the GI50 in the assay on MDA-MB-231 was > 10 µM (inactive); in the assay on HCC 2998, > 10 µM (inactive); in the assay on HCT-15, more than 10 µM; with DU-145, > 10 µM (inactive); with OVCAR-3, > 10 µM (inactive); in the assay with HOP-62, > 10 µM (inactive). Also, the GI50 with UACC-257, in the assay with SNB-19, with SW-620, with KM12, in the assay with RPMI-8226 and in the assay with U-251 was > 10 µM (inactive) in each case. Moreover, the GI50 in the assay on UACC-62, in the assay on SK-MEL-2, with MCF7, with NCI/ADR-RES, in the assay on LOX IMVI and in the assay on SK-MEL-28 was > 10 µM (inactive) throughout. For the same molecule, the GI50 in the assay with MDA-MB-435 and in the assay on MOLT-4 was > 10 µM (inactive) each time.

Turning to `CN(C)c1ccc(/C=C(\NC(=O)c2ccccc2)C(=O)Nc2cccc(C(=O)NCCCO)c2)cc1`, the GI50 is > 100 µM (inactive) with MDA-MB-231; > 100 µM (inactive) in the assay on HCC 2998; more than 100 µM in the assay with HCT-15; > 100 µM (inactive) in the assay with DU-145; > 100 µM (inactive) in the assay on OVCAR-3; > 100 µM (inactive) in the assay with HOP-62. Further, the GI50 in the assay with UACC-257, in the assay with SNB-19, in the assay on SW-620, in the assay on KM12, with RPMI-8226 and in the assay with U-251 was > 100 µM (inactive) each time. The GI50 in the assay on UACC-62, with SK-MEL-2, in the assay on MCF7, in the assay on NCI/ADR-RES, in the assay with LOX IMVI and with SK-MEL-28 was > 100 µM (inactive) throughout. The GI50 in the assay on MDA-MB-435 and in the assay on MOLT-4 was > 100 µM (inactive) in each case.

`COc1ccc2c(c1)C(=O)CC(N)C2` (stereo not given): the GI50 in the assay with MDA-MB-231 is > 100 µM (inactive); in the assay on HCC 2998 it was 47.6 µM (inactive); in the assay with HCT-15, more than 100 µM; with DU-145, > 100 µM (inactive); in the assay on OVCAR-3, 88.5 µM (inactive); with HOP-62 it was > 100 µM (inactive). The GI50 with UACC-257, in the assay with SNB-19, with SW-620, in the assay on KM12, in the assay with RPMI-8226 and with U-251 was > 100 µM (inactive) throughout. In addition, the GI50 is 68.5 µM (inactive) with UACC-62; > 100 µM (inactive) with SK-MEL-2; > 100 µM (inactive) with MCF7; > 100 µM (inactive) in the assay on NCI/ADR-RES; > 100 µM (inactive) in the assay with LOX IMVI; > 100 µM (inactive) with SK-MEL-28. Moreover, the figures for the GI50 with MDA-MB-435 and in the assay on MOLT-4 were > 100 µM (inactive) and 19.5 µM (inactive), respectively.

On to `O=C1/C(=C\c2cccc(Oc3ccccc3)c2)SC(c2ccccc2)N1c1ccccc1Cl` (stereo not given), for which the GI50 was 30.3 µM (inactive) in the assay with MDA-MB-231; 17.5 µM (inactive) in the assay with HCC 2998; 41.9 µM in the assay with HCT-15; 32.9 µM (inactive) with DU-145; 23.7 µM (inactive) with OVCAR-3; 28.8 µM (inactive) in the assay with HOP-62. Moreover, the GI50 in the assay on UACC-257 is 24.5 µM (inactive); with SNB-19, 24.4 µM (inactive); in the assay with SW-620, 33.3 µM (inactive); in the assay on KM12 it was 23 µM (inactive); in the assay with RPMI-8226 it was 13 µM (inactive); in the assay with U-251 it was 16.4 µM (inactive). For the same molecule, the GI50 is 25.5 µM (inactive) in the assay with UACC-62; 27.9 µM (inactive) in the assay on SK-MEL-2; 28.1 µM (inactive) in the assay with MCF7; 27.9 µM (inactive) in the assay with NCI/ADR-RES; 22.2 µM (inactive) in the assay with LOX IMVI; 41.2 µM (inactive) with SK-MEL-28. Besides, the figures for the GI50 in the assay with MDA-MB-435 and in the assay on MOLT-4 were 23.3 µM (inactive) and 34.8 µM (inactive), respectively.

Turning to `O=C1CCC2c3ccccc3NCN12` (stereo not given), the GI50 is > 100 µM (inactive) in the assay on MDA-MB-231; > 100 µM (inactive) with HCC 2998; more than 100 µM with HCT-15; > 100 µM (inactive) in the assay on DU-145; > 100 µM (inactive) in the assay on OVCAR-3; > 100 µM (inactive) in the assay with HOP-62. The GI50 in the assay on UACC-257, with SNB-19, in the assay with SW-620, in the assay with KM12, in the assay with RPMI-8226 and in the assay on U-251 was > 100 µM (inactive) throughout. Also, the GI50 in the assay on UACC-62, in the assay on SK-MEL-2, in the assay with MCF7, in the assay with NCI/ADR-RES, in the assay on LOX IMVI and in the assay on SK-MEL-28 was > 100 µM (inactive) throughout. Besides, the GI50 with MDA-MB-435 and with MOLT-4 was > 100 µM (inactive) throughout.

For the molecule `O=C(N/N=C/c1ccc(Br)cc1)N/N=C/c1ccc(Br)cc1`, the GI50 is 3.38 µM (inactive) in the assay on MDA-MB-231; 17.3 µM (inactive) in the assay on HCC 2998; 16.8 µM in the assay with HCT-15; 9.12 µM (inactive) in the assay with DU-145; 3.81 µM (inactive) in the assay with OVCAR-3; 5.56 µM (inactive) in the assay on HOP-62. Further, the GI50 was 17.6 µM (inactive) in the assay with UACC-257; 4.42 µM (inactive) in the assay with SNB-19; 7.13 µM (inactive) in the assay with SW-620; 17.1 µM (inactive) with KM12; 10.6 µM (inactive) with RPMI-8226; 6.24 µM (inactive) in the assay with U-251. The GI50 with UACC-62 was 12.6 µM (inactive); in the assay on SK-MEL-2 it was 75.5 µM (inactive); in the assay with MCF7 it was 11.3 µM (inactive); in the assay with NCI/ADR-RES, 5.6 µM (inactive); in the assay with LOX IMVI it was 3.98 µM (inactive); in the assay with SK-MEL-28 it was 12 µM (inactive). Further, the GI50 with MDA-MB-435 was 12.3 µM (inactive); in the assay with MOLT-4, 4.42 µM (inactive).

Consider `COc1cccc2c1C(=O)c1c(O)c3c(c(O)c1C2=O)C[C@@](O)(C(=O)CO)C[C@@H]3OC1CC2C(OCN3CN2COC2C(C)OC(O[C@H]4C[C@](O)(C(=O)CO)Cc5c(O)c6c(c(O)c54)C(=O)c4c(OC)cccc4C6=O)CC23)C(C)O1` (stereo not given in full), for which the GI50 was 0.0741 µM (active) in the assay with MDA-MB-231; 0.0274 µM (active) with HCC 2998; 0.161 µM in the assay on HCT-15; 0.0265 µM (active) in the assay with DU-145; 0.112 µM (active) in the assay with OVCAR-3; 0.04 µM (active) in the assay with HOP-62. Also, the GI50 is 0.05 µM (active) in the assay with UACC-257; 0.0272 µM (active) in the assay on SNB-19; 0.0187 µM (active) in the assay on SW-620; 0.0635 µM (active) in the assay on KM12; 0.0184 µM (active) in the assay on RPMI-8226; 0.0186 µM (active) in the assay with U-251. Besides, the GI50 with UACC-62 is 0.0345 µM (active); in the assay on SK-MEL-2 it was 0.0362 µM (active); in the assay on MCF7, 0.0179 µM (active); with NCI/ADR-RES, 0.251 µM (active); in the assay with LOX IMVI, 0.0134 µM (active); in the assay with SK-MEL-28, 0.157 µM (active). Further, the GI50 is 0.0891 µM (active) in the assay with MDA-MB-435 and 0.00269 µM (active) in the assay on MOLT-4.

On to `CC(C)N1[C@@H]2CCCC[C@H]2N(C(C)C)P1(=O)C(=O)/C=C/c1ccccc1`, for which the GI50 was 2.98 µM (inactive) in the assay with MDA-MB-231; 2.18 µM (inactive) in the assay on HCC 2998; 1.92 µM with HCT-15; 2.08 µM (inactive) with DU-145; 2.38 µM (inactive) in the assay with OVCAR-3; 3.88 µM (inactive) with HOP-62. Besides, the GI50 with UACC-257 was 3.08 µM (inactive); in the assay with SNB-19, 5.52 µM (inactive); with SW-620 it was 2.58 µM (inactive); with KM12, 3.23 µM (inactive); with RPMI-8226, 2.49 µM (inactive); with U-251, 4.08 µM (inactive). Moreover, the GI50 in the assay on UACC-62 is 2.57 µM (inactive); with SK-MEL-2 it was 2.72 µM (inactive); in the assay on MCF7, 3.5 µM (inactive); in the assay on NCI/ADR-RES, 2.02 µM (inactive); with LOX IMVI it was 2.03 µM (inactive); in the assay with SK-MEL-28, 2.37 µM (inactive). The GI50 is 1.76 µM (inactive) in the assay on MDA-MB-435 and 2.7 µM (inactive) in the assay with MOLT-4.

For the molecule `O=C(c1ccco1)N1CCN(C(=O)c2ccco2)C1=S`, the GI50 in the assay on MDA-MB-231 was 11.6 µM (inactive); in the assay with HCC 2998 it was 12.4 µM (inactive); with HCT-15, 6.24 µM; in the assay on DU-145, 2.61 µM (inactive); in the assay with OVCAR-3 it was 3.44 µM (inactive); with HOP-62, 10.6 µM (inactive). In addition, the GI50 was 4.9 µM (inactive) in the assay on UACC-257; 24.4 µM (inactive) in the assay on SNB-19; 5.66 µM (inactive) with SW-620; 3.93 µM (inactive) with KM12; 2.02 µM (inactive) in the assay on RPMI-8226; 10 µM (inactive) in the assay with U-251. For the same molecule, the GI50 in the assay with UACC-62 was 6.34 µM (inactive); in the assay with SK-MEL-2 it was 13 µM (inactive); in the assay with MCF7, 2.99 µM (inactive); in the assay on NCI/ADR-RES, 21.1 µM (inactive); in the assay with LOX IMVI, 3.59 µM (inactive); with SK-MEL-28 it was 5.87 µM (inactive). The GI50 in the assay on MDA-MB-435 is 3.59 µM (inactive); in the assay with MOLT-4, 1.42 µM (inactive).
